# Experimental data taken from US20260132127A1, “NOVEL SPIRO COMPOUND” (MITSUBISHI TANABE PHARMA CORPORATION, priority 2021, published 2026).
# Target: T1, human TRH-DE (Homo sapiens, UniProt Q9UKU6)
# T1 construct: expressed in transfected cells; host or cells: Expi 293 cells (transient expression), membrane fraction
# T1 sequence (Q9UKU6 1-1069): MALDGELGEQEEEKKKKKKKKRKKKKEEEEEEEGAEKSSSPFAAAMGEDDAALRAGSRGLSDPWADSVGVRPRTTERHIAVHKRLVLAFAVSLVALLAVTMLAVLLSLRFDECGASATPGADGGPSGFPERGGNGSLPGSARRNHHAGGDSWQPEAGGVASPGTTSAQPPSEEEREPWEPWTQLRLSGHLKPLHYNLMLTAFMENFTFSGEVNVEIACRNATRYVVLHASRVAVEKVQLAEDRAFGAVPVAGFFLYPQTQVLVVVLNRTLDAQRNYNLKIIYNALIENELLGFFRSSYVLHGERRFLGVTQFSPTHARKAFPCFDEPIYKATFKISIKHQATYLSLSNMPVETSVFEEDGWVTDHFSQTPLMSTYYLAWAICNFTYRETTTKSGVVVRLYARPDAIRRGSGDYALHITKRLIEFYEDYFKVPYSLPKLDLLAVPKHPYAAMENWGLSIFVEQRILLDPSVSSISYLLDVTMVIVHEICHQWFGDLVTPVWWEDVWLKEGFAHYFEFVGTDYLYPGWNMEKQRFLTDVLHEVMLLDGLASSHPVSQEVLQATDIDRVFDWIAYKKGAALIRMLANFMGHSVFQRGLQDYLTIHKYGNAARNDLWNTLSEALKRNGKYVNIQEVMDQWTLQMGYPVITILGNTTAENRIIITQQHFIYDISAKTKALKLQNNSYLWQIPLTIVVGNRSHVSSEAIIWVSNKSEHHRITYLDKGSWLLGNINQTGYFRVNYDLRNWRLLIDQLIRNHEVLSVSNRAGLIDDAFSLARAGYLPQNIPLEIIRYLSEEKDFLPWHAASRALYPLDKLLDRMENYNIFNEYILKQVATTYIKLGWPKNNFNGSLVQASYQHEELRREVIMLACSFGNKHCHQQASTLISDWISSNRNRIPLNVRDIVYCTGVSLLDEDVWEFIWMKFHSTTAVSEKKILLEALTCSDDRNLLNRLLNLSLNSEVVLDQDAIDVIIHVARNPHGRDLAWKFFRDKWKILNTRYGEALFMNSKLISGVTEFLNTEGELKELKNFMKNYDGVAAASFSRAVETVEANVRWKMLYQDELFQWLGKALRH
# Test: TRH-DE inhibition test (RapidFire MS measurement of product Cyclo (His-Pro))
# Format: biochemical
# Conditions: membrane fraction of Expi 293 cells expressing human TRH-DE; 10 μM TRH substrate; room temperature, 2 hours; 16-point concentration test
# Outline: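 Membrane fraction from Expi 293 cells transiently expressing human TRH-DE, at 4 μg/ml in phosphate buffer pH 7.4 with 200 μM bacitracin, reacted with compound and 10 μM substrate for 2 h at room temperature. Cyclo(His-Pro) measured by RapidFire MS against an isotope internal standard. IC50 from 16-point curves.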
row,SMILES,IC50
1,C[C@@H]1CCN(C(=O)c2cc[nH]n2)CC(=O)N1C1CC2(C1)CN(S(=O)(=O)c1ccccc1F)C2 [Example 449],65 nM
2,C[C@@H]1CCN(C(=O)c2cccs2)CC(=O)N1C1CC2(C1)CN(S(=O)(=O)c1ccccc1F)C2 [Example 450],81 nM
3,COCCC(=O)N1CC[C@@H](C)N(C2CC3(C2)CN(S(=O)(=O)c2ccccc2F)C3)C(=O)C1 [Example 453],348 nM
4,C[C@@H]1CCN(C(=O)c2ccccc2)CC(=O)N1C1CC2(C1)CN(S(=O)(=O)c1ccccc1F)C2 [Example 454],70 nM
5,"C[C@@H]1CCN(S(C)(=O)=O)CC(=O)N1C1CC2(C1)CN(S(=O)(=O)c1ccccc1F)C2 [Example 455, (7R)-1-[2-(2-fluorophenyl)sulfonyl-2-azaspiro[3.3]heptan-6-yl]-7-methyl-4-methylsulfonyl-1,4-diazepan-2-one]",291 nM

# Now from value to compound:
row,IC50,SMILES
1,76 nM,C[C@@H]1CCN(C(=O)c2ccc3ccccc3c2)CC(=O)N1C1CC2(C1)CN(S(=O)(=O)c1ccccc1F)C2 [Example 451]
2,88 nM,C[C@@H]1CCN(C(=O)C2(F)CC2)CC(=O)N1C1CC2(C1)CN(S(=O)(=O)c1ccccc1F)C2 [Example 452]
3,90 nM,"C[C@@H]1CCN(c2ccccn2)CC(=O)N1C1CC2(C1)CN(S(=O)(=O)c1ccccc1F)C2 [Example 456, (7R)-1-[2-(2-fluorophenyl)sulfonyl-2-azaspiro[3.3]heptan-6-yl]-7-methyl-4-pyridin-2-yl-1,4-diazepan-2-one]"
4,171 nM,"CC1CCOCC(=O)N1C1CC2(C1)CN(S(=O)(=O)c1ccccc1F)C2 (stereo not drawn) [Example 457, 4-[2-(2-fluorophenyl)sulfonyl-2-azaspiro[3.3]heptan-6-yl]-5-methyl-1,4-oxazepan-3-one]"
5,280 nM,"C[C@@H]1COCC(=O)N1C1CC2(C1)CN(S(=O)(=O)c1ccccc1F)C2 [Example 458, (5R)-4-[2-(2-fluorophenyl)sulfonyl-2-azaspiro[3.3]heptan-6-yl]-5-methylmorpholin-3-one]"
6,176 nM,"CC1CCCCC(=O)N1C1CC2(C1)CN(S(=O)(=O)c1ccccc1F)C2 (stereo not drawn) [Example 459, 1-[2-(2-fluorophenyl)sulfonyl-2-azaspiro[3.3]heptan-6-yl]-7-methylazepan-2-one]"
7,424 nM,"C[C@@H]1COCCC(=O)N1C1CC2(C1)CN(S(=O)(=O)c1ccccc1F)C2 [Example 460, (3R)-4-[2-(2-fluorophenyl)sulfonyl-2-azaspiro[3.3]heptan-6-yl]-3-methyl-1,4-oxazepan-5-one]"
